# Measured values: patent US20230301300A1, “HERBICIDAL COMPOSITIONS” (SYNGENTA CROP PROTECTION AG, priority 2020, published 2023)
# Tests used:
# Type in all cases: in vivo
# Galium aparine (GALAP) = assay: B2 Post-Emergence Efficacy - Test 2; conditions: 15 days after application, 0-100 scale
# In short: (§1)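 Score 0–100 (0 none, 100 kill), 15 d after spraying. Treatment: IF50 formulation in aqueous spray, adjuvant Genapol X080 at 0.2% v/v, applied to plants 12 d after sowing. Glasshouse day/night 24/18 or 20/16 °C, 16 h light, 65% humidity.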
# [1] = tested on: Amaranthus retroflexus (AMARE); assay: B2 Post-Emergence Efficacy - Test 2; conditions: 15 days after application, 0-100 scale
# In short: as §1
# Setaria faberi (SETFA) [2] = assay: B2 Post-Emergence Efficacy - Test 2; conditions: 15 days after application, 0=no damage, 100=total kill
# In short: as §1
# Beta vulgaris (BEAVA) = assay: B2 Post-Emergence Efficacy - Test 2; conditions: 15 days after application, 0-100 scale
# In short: as §1
# Sinapis arvensis (SINAR) = assay: B2 Post-Emergence Efficacy - Test 2; conditions: 15 days after application, 0-100 scale
# In short: as §1
# [3] = tested on: Triticum aestivum (TRZAW); assay: B2 Post-Emergence Efficacy - Test 2; conditions: 15 days after application, 0-100 scale
# In short: as §1
# Eleisine indica (ELEIN) = assay: B2 Post-Emergence Efficacy - Test 2; conditions: 15 days after application, 0=no damage, 100=total kill
# In short: as §1
# Bidens pilosa (BIDPI) = assay: B2 Post-Emergence Efficacy - Test 2; conditions: 15 days after application, 0-100 scale
# In short: as §1
# Kochia scoparia (KSHSC) = assay: B2 Post-Emergence Efficacy - Test 2; conditions: 15 days after application, 0-100 scale
# In short: as §1
# [4] = tested on: Digitaria sanguinalis (DIGSA); assay: B2 Post-Emergence Efficacy - Test 2; conditions: 15 days after application, 0=no damage, 100=total kill
# In short: as §1
# [5] = tested on: Ipomoea hederacea (IPOHE); assay: B2 Post-Emergence Efficacy - Test 2; conditions: 15 days after application, 0-100 scale
# In short: as §1
# Avena fatua (AVEFA) = assay: B2 Post-Emergence Efficacy - Test 2; conditions: 15 days after application, 0-100 scale
# In short: as §1
# Veronica persica (VERPE) = assay: B2 Post-Emergence Efficacy - Test 2; conditions: 15 days after application, 0-100 scale
# In short: as §1
# [6] = tested on: Brachiaria plantaginea (BRAPL); assay: B2 Post-Emergence Efficacy - Test 2; conditions: 15 days after application, 0=no damage, 100=total kill
# In short: as §1
# Hordeum vulgare (HORVW) = assay: B2 Post-Emergence Efficacy - Test 2; conditions: 15 days after application, 0-100 scale
# In short: as §1
# Setaria faberi (SETFA) [7] = assay: B1 Post-Emergence Efficacy - Test 1; conditions: 1000 g/ha, after 13 days, five point scale
# Experimental: Seeds of a variety of test species are sown in standard soil in pots:— Solanum nigrum (SOLNI), Amaranthus retoflexus (AMARE), Setaria faberi (SETFA), Alopecurus myosuroides (ALOMY), Echinochloa crus-galli (ECHCG), Ipomoea hederacea (IPOHE), Lolium perenne (LOLPE). After 8 days cultivation (post-emergence) under controlled conditions in a glasshouse (at 24/16° C., day/night; 14 hours light; 65% humidity), the plants are sprayed with an aqueous spray solution derived from the formulation of the technical active ingredient in acetone/water (50:50) solution containing 0.5% Tween 20 (polyoxyethylene sorbitan monolaurate, CAS RN 9005-64-5). Compounds are applied at 1000 g/ha. The test plants are then grown in a glasshouse under controlled conditions in a glasshouse (at 24/16° C., day/night; 14 hours light; 65% humidity) and watered twice daily. After 13 days, the test is evaluated for the percentage damage caused to the plant. The biological activities are assessed on a five point scale (5=80-100%; 4=60-79%; 3=40-59%; 2=20-39%; 1=0-19%). A blank value in the table is indicative that the compound was not tested on that species.
structure (smiles),measurement,setting,value
"Cc1nn(C)c(=O)c(-c2c(F)ccc(Cl)c2CCc2ccc(C(F)(F)F)nc2)c1O [Compound 1.042, 4-[3-chloro-6-fluoro-2-[2-[6-(trifluoromethyl)-3-pyridyl]ethyl]phenyl]-5-hydroxy-2,6-dimethyl-pyridazin-3-one]",Herbicidal activity GALAP,Galium aparine (GALAP); 15 g/Ha,10
same,Herbicidal activity GALAP,Galium aparine (GALAP); 30 g/Ha,30
same,Herbicidal activity GALAP,Galium aparine (GALAP); 60 g/Ha,60
same,Herbicidal activity GALAP,Galium aparine (GALAP); 125 g/Ha,80
same,Herbicidal activity GALAP,Galium aparine (GALAP); 250 g/Ha,80
same,Herbicidal activity GALAP,Galium aparine (GALAP); 500 g/Ha,90
same,Herbicidal activity AMARE,[1]; 30 g/Ha,100
same,Herbicidal activity AMARE,[1]; 60 g/Ha,100
same,Herbicidal activity AMARE,[1]; 125 g/Ha,100
same,Herbicidal activity AMARE,[1]; 250 g/Ha,100
same,Herbicidal activity AMARE,[1]; 500 g/Ha,100
same,"Herbicidal activity on a 0-100 scale, SETFA",Setaria faberi (SETFA) [2]; 15 g/Ha,40
same,"Herbicidal activity on a 0-100 scale, SETFA",Setaria faberi (SETFA) [2]; 30 g/Ha,80
same,"Herbicidal activity on a 0-100 scale, SETFA",Setaria faberi (SETFA) [2]; 60 g/Ha,90
same,"Herbicidal activity on a 0-100 scale, SETFA",Setaria faberi (SETFA) [2]; 125 g/Ha,90
same,"Herbicidal activity on a 0-100 scale, SETFA",Setaria faberi (SETFA) [2]; 250 g/Ha,90
same,"Herbicidal activity on a 0-100 scale, SETFA",Setaria faberi (SETFA) [2]; 500 g/Ha,100
same,Herbicidal activity BEAVA,Beta vulgaris (BEAVA); 15 g/Ha,80
same,Herbicidal activity BEAVA,Beta vulgaris (BEAVA); 30 g/Ha,70
same,Herbicidal activity BEAVA,Beta vulgaris (BEAVA); 60 g/Ha,80
same,Herbicidal activity BEAVA,Beta vulgaris (BEAVA); 125 g/Ha,90
same,Herbicidal activity BEAVA,Beta vulgaris (BEAVA); 250 g/Ha,90
same,Herbicidal activity BEAVA,Beta vulgaris (BEAVA); 500 g/Ha,90
same,Herbicidal activity SINAR,Sinapis arvensis (SINAR); 15 g/Ha,80
same,Herbicidal activity SINAR,Sinapis arvensis (SINAR); 30 g/Ha,90
same,Herbicidal activity SINAR,Sinapis arvensis (SINAR); 60 g/Ha,90
same,Herbicidal activity SINAR,Sinapis arvensis (SINAR); 125 g/Ha,90
same,Herbicidal activity SINAR,Sinapis arvensis (SINAR); 250 g/Ha,90
same,Herbicidal activity SINAR,Sinapis arvensis (SINAR); 500 g/Ha,90
same,Herbicidal activity TRZAW,[3]; 15 g/Ha,20
same,Herbicidal activity TRZAW,[3]; 30 g/Ha,30
same,Herbicidal activity TRZAW,[3]; 60 g/Ha,60
same,Herbicidal activity TRZAW,[3]; 125 g/Ha,70
same,Herbicidal activity TRZAW,[3]; 250 g/Ha,80
same,Herbicidal activity TRZAW,[3]; 500 g/Ha,80
same,"Herbicidal activity on a 0-100 scale, ELEIN",Eleisine indica (ELEIN); 15 g/Ha,0
same,"Herbicidal activity on a 0-100 scale, ELEIN",Eleisine indica (ELEIN); 30 g/Ha,70
same,"Herbicidal activity on a 0-100 scale, ELEIN",Eleisine indica (ELEIN); 60 g/Ha,70
same,"Herbicidal activity on a 0-100 scale, ELEIN",Eleisine indica (ELEIN); 125 g/Ha,80
same,"Herbicidal activity on a 0-100 scale, ELEIN",Eleisine indica (ELEIN); 250 g/Ha,80
same,"Herbicidal activity on a 0-100 scale, ELEIN",Eleisine indica (ELEIN); 500 g/Ha,90
same,Herbicidal activity BIDPI,Bidens pilosa (BIDPI); 15 g/Ha,70
same,Herbicidal activity BIDPI,Bidens pilosa (BIDPI); 30 g/Ha,70
same,Herbicidal activity BIDPI,Bidens pilosa (BIDPI); 60 g/Ha,70
same,Herbicidal activity BIDPI,Bidens pilosa (BIDPI); 125 g/Ha,70
same,Herbicidal activity BIDPI,Bidens pilosa (BIDPI); 250 g/Ha,80
same,Herbicidal activity BIDPI,Bidens pilosa (BIDPI); 500 g/Ha,90
same,Herbicidal activity KCHSC,Kochia scoparia (KSHSC); 15 g/Ha,0
same,Herbicidal activity KCHSC,Kochia scoparia (KSHSC); 30 g/Ha,10
same,Herbicidal activity KCHSC,Kochia scoparia (KSHSC); 60 g/Ha,10
same,Herbicidal activity KCHSC,Kochia scoparia (KSHSC); 125 g/Ha,20
same,Herbicidal activity KCHSC,Kochia scoparia (KSHSC); 250 g/Ha,30
same,Herbicidal activity KCHSC,Kochia scoparia (KSHSC); 500 g/Ha,60
same,"Herbicidal activity on a 0-100 scale, DIGSA",[4]; 15 g/Ha,0
same,"Herbicidal activity on a 0-100 scale, DIGSA",[4]; 30 g/Ha,60
same,"Herbicidal activity on a 0-100 scale, DIGSA",[4]; 60 g/Ha,70
same,"Herbicidal activity on a 0-100 scale, DIGSA",[4]; 125 g/Ha,70
same,"Herbicidal activity on a 0-100 scale, DIGSA",[4]; 250 g/Ha,80
same,"Herbicidal activity on a 0-100 scale, DIGSA",[4]; 500 g/Ha,90
same,Herbicidal activity IPOHE,[5]; 15 g/Ha,100
same,Herbicidal activity IPOHE,[5]; 30 g/Ha,100
same,Herbicidal activity IPOHE,[5]; 60 g/Ha,100
same,Herbicidal activity IPOHE,[5]; 125 g/Ha,100
same,Herbicidal activity IPOHE,[5]; 250 g/Ha,100
same,Herbicidal activity IPOHE,[5]; 500 g/Ha,100
same,Herbicidal activity AVEFA,Avena fatua (AVEFA); 15 g/Ha,30
same,Herbicidal activity AVEFA,Avena fatua (AVEFA); 30 g/Ha,60
same,Herbicidal activity AVEFA,Avena fatua (AVEFA); 60 g/Ha,80
same,Herbicidal activity AVEFA,Avena fatua (AVEFA); 125 g/Ha,80
same,Herbicidal activity AVEFA,Avena fatua (AVEFA); 250 g/Ha,90
same,Herbicidal activity AVEFA,Avena fatua (AVEFA); 500 g/Ha,90
same,Herbicidal activity VERPE,Veronica persica (VERPE); 15 g/Ha,80
same,Herbicidal activity VERPE,Veronica persica (VERPE); 30 g/Ha,90
same,Herbicidal activity VERPE,Veronica persica (VERPE); 60 g/Ha,100
same,Herbicidal activity VERPE,Veronica persica (VERPE); 125 g/Ha,100
same,Herbicidal activity VERPE,Veronica persica (VERPE); 250 g/Ha,100
same,Herbicidal activity VERPE,Veronica persica (VERPE); 500 g/Ha,100
same,"Herbicidal activity on a 0-100 scale, BRAPL",[6]; 15 g/Ha,80
same,"Herbicidal activity on a 0-100 scale, BRAPL",[6]; 30 g/Ha,80
same,"Herbicidal activity on a 0-100 scale, BRAPL",[6]; 60 g/Ha,90
same,"Herbicidal activity on a 0-100 scale, BRAPL",[6]; 125 g/Ha,90
same,"Herbicidal activity on a 0-100 scale, BRAPL",[6]; 250 g/Ha,90
same,"Herbicidal activity on a 0-100 scale, BRAPL",[6]; 500 g/Ha,90
same,Herbicidal activity HORVW,Hordeum vulgare (HORVW); 15 g/Ha,10
same,Herbicidal activity HORVW,Hordeum vulgare (HORVW); 30 g/Ha,20
same,Herbicidal activity HORVW,Hordeum vulgare (HORVW); 60 g/Ha,20
same,Herbicidal activity HORVW,Hordeum vulgare (HORVW); 125 g/Ha,40
same,Herbicidal activity HORVW,Hordeum vulgare (HORVW); 250 g/Ha,80
same,Herbicidal activity HORVW,Hordeum vulgare (HORVW); 500 g/Ha,80
same,"percentage damage caused to the plant, SETFA",Setaria faberi (SETFA) [7],5 (5=80-100%)
